Test results from paper PMC10482267, “Safety, tolerability, pharmacokinetics, and pharmacodynamics of single and multiple doses of aficamten in healthy Chinese participants: a randomized, double-blind, placebo-controlled, phase 1 study” (Frontiers in Pharmacology, 2023).
Where “and” joins values, the source holds several entries; their conditions need not be identical. Equal values may be shown once. Read-outs that look alike come from different tables or passages of the source.

Experiment: Plasma pharmacokinetics of aficamten and metabolites after single and multiple oral doses, phase 1 study
Type: in vivo, human
Settings: for AR_AUC (accumulation ratio based on AUC0-24) / AR_Cmax (accumulation ratio based on Cmax): day 14 vs day 1; for Tmax / AUC(0-inf) / AUC(0-t) / Cmax / half-life: human
Experimental: This was a double-blind, randomized, placebo-controlled, phase 1 study including SAD and MD dose cohorts (Figure 1). […] For the second single-dose cohort, 20 mg was chosen as the escalated dose according to the dosing plan scheduled in the phase 3 study (CY 6031: NCT05186818). Furthermore, a multiple oral dose of 5 mg once daily (QD) was selected to explore the steady-state PK exposure in Chinese participants and to compare the findings with the MAD 5 mg QD results in the study CY 6011.
A total of 28 participants were enrolled in the study, with eight participants per SAD cohort (10 mg and 20 mg) and 12 participants in the MD cohort (5 mg). The sample size chosen for this study was based on other precedent PK studies of similar nature and was not based on power calculations. In each SAD cohort, eight eligible participants were randomized in 3:1 ratio to receive a single oral dose of aficamten or the matching placebo after overnight fasting. The dose escalation criteria (see Supplementary File S1) had to be met to proceed from the SAD 10 mg cohort to the SAD 20 mg cohort. In addition, the SAD 20 mg cohort started at least 5 days after the last subject’s administration in the SAD 10 mg cohort. Upon the completion of the SAD 20 mg cohort, the study proceeded to the MD 5 mg cohort when the dose escalation criteria were met. The MD cohort started at least 5 days later after the last subject’s administration in the SAD 20 mg cohort. In the MD cohort, 12 eligible participants were enrolled and randomized in 3:1 ratio to receive multiple oral doses of 5 mg of aficamten or the matching placebo under fasting conditions for 14 days. The investigator would determine if stopping rules (see Supplementary File S2) were met in this cohort.
Blood samples (4 mL) for plasma PK analysis of aficamten and its metabolites (mono-hydroxylated derivative CK-3834282 and its diastereomer CK-3834283) were collected into K2EDTA tubes in the SAD cohorts at the following time points: at pre-dose and at 0.25, 0.5, 1, 1.5, 2, 2.5, 3, 4, 6, 8, 12, 16, 24, 36, 48, 72, 96, and 216 h post-dose. In the MD cohort, blood samples were collected at pre-dose and at 0.25, 0.5, 1, 1.5, 2, 2.5, 3, 4, 6, 8, 12, and 16 h post-dose on day 1; at pre-dose and at 1.5 h post-dose on day 2, days 4–6, and day 9; at pre-dose on day 3, days 7–8, and days 10–13; at pre-dose and at 0.25, 0.5, 1, 1.5, 2, 2.5, 3, 4, 6, 8, 12, 16, 24, 36, 48, 72, 168, and 216 h post-dose on day 14. After collection, blood samples were centrifuged at 1700 g for 10 min at 4°C ± 2°C; plasma was aliquoted and stored at −80°C ± 20°C until analyzed. Meanwhile, samples for urine PK analysis of aficamten were collected in the MD cohort as follows: pre-dose, 0–4 h, 4–8 h, 8–12 h, and 12–24 h on days 1 and 14, respectively.
The samples were determined using a validated ultra-performance liquid chromatography-tandem mass spectrometry (UPLC-MS/MS) method. The detection was performed on a tandem mass spectrometer in the electrospray ionization (ESI)-positive mode. The multiple reactions monitoring (MRM) mode was applied to monitor the following ion transitions: m/z 338.2→213.2 for aficamten and m/z 354.3→ 229.3 for metabolite CK-3834282 and its diastereomer CK-3834283. Note that the diastereomers were separated from chromatography during the analysis. The calibration curves of the plasma and urine samples were linear, ranging from 1 to 500 ng/mL, and the intra- and inter-run accuracies (RE%) and precisions (RSD%) were within ±15%. In addition, the selectivity, matrix effect, extraction recovery, carryover, and stability at different conditions were also fully evaluated.
The plasma PK parameters were evaluated using the plasma concentrations by the non-compartmental model approach using WinNonlin (version 8.3, Certara LP, Princeton, NJ, USA) and were summarized descriptively by the cohort and dose. […]

[1] = MD 5 mg once daily, mean ± SD, listed as Aficamten

SMILES: CCc1nc(-c2ccc3c(c2)CC[C@H]3NC(=O)c2cnn(C)c2)no1 [aficamten]
- AR_AUC (accumulation ratio based on AUC0-24) (MD 5 mg once daily, mean ± SD): 4.2 and 4.16
- AR_Cmax (accumulation ratio based on Cmax) (MD 5 mg once daily, mean ± SD): 1.8
- AR_AUC (accumulation ratio based on AUC0-24) [1]: 4.2 ± 0.4
- AR_Cmax (accumulation ratio based on Cmax) [1]: 1.8 ± 0.6
- t1/2 (MD 5 mg, day 14, plasma, mean ± SD): 76.8 ± 11.8 h
- tmax (tmax,ss) (MD 5 mg, day 14, plasma, median (minimum, maximum)): 0.5 (0.25, 2.0) h
- CL/F (MD 5 mg, day 14, mean ± SD): 3.8 ± 0.6 L/h
- V/F (MD 5 mg, day 14, mean ± SD): 412.7 ± 66.1 L
- CL/F (SAD 10 mg, mean ± SD): 3.0 ± 0.19 L/h
- V/F (SAD 10 mg, mean ± SD): 320.3 ± 51.3 L
- t1/2 (SAD 20 mg, plasma, mean ± SD): 77.3 ± 13.6 h
- CL/F (SAD 20 mg, mean ± SD): 3.4 ± 0.2 L/h
- V/F (SAD 20 mg, mean ± SD): 371.9 ± 55.4 L
- dose proportionality of plasma exposure (AUC0-24 and Cmax), in words (dose range 5–20 mg): dose-proportional
- Tmax (oral, MD 5 mg, day 1, plasma, median (minimum, maximum), read-out: tmax): 0.5 h
- AUC(0-inf) (oral, SAD 10 mg, plasma, mean ± SD): 3340 ± 223 ng·h/mL
- Tmax (oral, SAD 10 mg, plasma, median (minimum, maximum), read-out: tmax): 0.75 h
- AUC(0-inf) (oral, SAD 20 mg, plasma, mean ± SD): 5990 ± 415 ng·h/mL
- Tmax (oral, SAD 20 mg, plasma, median (minimum, maximum), read-out: tmax): 0.5 h
- AUC(0-t) (plasma, oral, 5 mg, MD 5 mg once daily, day 1, plasma, mean ± SD, N = 9, read-out: AUC0-24): 325 ± 32.6 ng·h/mL
- AUC(0-t) (plasma, oral, 5 mg, MD 5 mg once daily, day 14, plasma, mean ± SD, N = 9, read-out: AUC0-24): 1360 ± 215 ng·h/mL
- AUC(0-t) (plasma, oral, 5 mg, MD 5 mg, day 1, plasma, mean ± SD, read-out: AUC0-t): 324 ± 32.5 ng·h/mL
- Cmax (plasma, oral, 5 mg, MD 5 mg, day 1, plasma, mean ± SD, read-out: Cmax): 72.6 ± 19.5 ng/mL
- half-life (plasma, oral, 5 mg, MD 5 mg, day 1, plasma, mean ± SD, read-out: t1/2 (converted)): 38.6 ± 16.1 h
- Cmax (plasma, oral, 5 mg, MD 5 mg, day 14, plasma, mean ± SD, read-out: Cmax (Cmax,ss)): 122 ± 35.2 ng/mL
- half-life (plasma, oral, 5 mg, MD 5 mg, day 14, plasma, mean ± SD, read-out: t1/2 (converted)): ~77 h
- AUC(0-t) (plasma, oral, 10 mg, SAD 10 mg, plasma, mean ± SD, read-out: AUC0-t): 2780 ± 249 ng·h/mL
- Cmax (plasma, oral, 10 mg, SAD 10 mg, plasma, mean ± SD, read-out: Cmax): 115 ± 29.9 ng/mL
- half-life (plasma, oral, 10 mg, SAD 10 mg, plasma, mean ± SD, read-out: t1/2 (converted)): 73.8 ± 10.2 h
- AUC(0-t) (plasma, oral, 20 mg, SAD 20 mg, plasma, mean ± SD, read-out: AUC0-t): 5290 ± 372 ng·h/mL
- Cmax (plasma, oral, 20 mg, SAD 20 mg, plasma, mean ± SD, read-out: Cmax): 227 ± 71.8 ng/mL
- Tmax (plasma, oral, all cohorts, read-out: time of peak concentration (tmax day 1, tmax,ss day 14)): 0.5 to 0.75 h
- AUC(0-t) (plasma, po, 10 mg, SAD 10 mg single oral dose, fasted, plasma, mean ± SD, N = 6, read-out: AUC0-24): 670 ± 85 ng·h/mL
- AUC(0-t) (plasma, po, 20 mg, SAD 20 mg single oral dose, fasted, plasma, mean ± SD, N = 6, read-out: AUC0-24): 1300 ± 151 ng·h/mL
- half-life (plasma, po, across single oral dose 10 mg and 20 mg and 14 days QD 5 mg, read-out: mean half-life): 74 to 77 h
- half-life (plasma, po, single oral dose of 10 mg and 20 mg of aficamten, across both doses, read-out: t1/2 (arithmetic mean)): 74 to 77 h
